Source: patent publication US20120136003A1, “COMPOUNDS, COMPOSITIONS AND METHODS COMPRISING 1,3,4-OXADIAZOLE DERIVATIVES” (Institute For Oneworld Health, priority 2009, published 2012)

Molecular target: CFTR (Homo sapiens, UniProt P13569)
Experiment: T84 assay (FLIPR membrane potential)
Format: cell-based
Parameters: Human colonic T84 cells are acquired from the European Collection of Cell Cultures (ECACC); host or cells: T84 human colonic cells
Protocol: (§1) For example, Human colonic T84 cells can be acquired from the European Collection of Cell Cultures (ECACC) and grown in standard culture conditions as described by the supplier. On the day before assay 25,000 T84 cells per well are plated into standard black walled, clear bottom 384-well assay plates in standard growth medium consisting of DMEM:F12 with 10% FBS and incubated overnight. On the day of the assay the plates are washed using a standard assay buffer (HBSS with 10 mM Hepes) and incubated for 15 minutes in serum free cell culture medium before the addition of a commercially available membrane potential sensitive fluorescent dye (FLIPR Red membrane potential dye, Molecular Devices Corporation). T84 cells are incubated with the FLIPR Red membrane potential dye for 45 minutes in the presence and absence of test compound before being transferred to a commercially available fluorescence imaging plate reader (FLIPR384, Molecular Devices Corporation). Fluorescence levels are monitored continuously every second for 150 seconds; after an initial 10 second baseline, CFTR channel activity is stimulated through the addition of 10 μM forskolin in the presence of 100 μM of the phosphodiesterase inhibitor iso-butyl-methylxanthine (IBMX). Addition of the forskolin leads to the activation of intracellular adenylyl cylase 1, elevating cAMP levels and results in the phosphorylation and opening of CFTR anion channels. CFTR channel opening causes chloride ion efflux and subsequent depolarization of the cells, which is measured by an increase in fluorescence. CFTR inhibitor compounds prevent cell depolarization and the associated increase in fluorescence.
as §1, with “Human colonic” for “For example, Human colonic”, “T84 cells are acquired from” for “T84 cells can be acquired from”, “(ECACC) and are grown in” for “(ECACC) and grown in”, “with 10 Mm Hepes) and” for “with 10 mM Hepes) and”, “1, elevating Camp levels and” for “1, elevating cAMP levels and”

Chain of CFTR (P13569 whole entry): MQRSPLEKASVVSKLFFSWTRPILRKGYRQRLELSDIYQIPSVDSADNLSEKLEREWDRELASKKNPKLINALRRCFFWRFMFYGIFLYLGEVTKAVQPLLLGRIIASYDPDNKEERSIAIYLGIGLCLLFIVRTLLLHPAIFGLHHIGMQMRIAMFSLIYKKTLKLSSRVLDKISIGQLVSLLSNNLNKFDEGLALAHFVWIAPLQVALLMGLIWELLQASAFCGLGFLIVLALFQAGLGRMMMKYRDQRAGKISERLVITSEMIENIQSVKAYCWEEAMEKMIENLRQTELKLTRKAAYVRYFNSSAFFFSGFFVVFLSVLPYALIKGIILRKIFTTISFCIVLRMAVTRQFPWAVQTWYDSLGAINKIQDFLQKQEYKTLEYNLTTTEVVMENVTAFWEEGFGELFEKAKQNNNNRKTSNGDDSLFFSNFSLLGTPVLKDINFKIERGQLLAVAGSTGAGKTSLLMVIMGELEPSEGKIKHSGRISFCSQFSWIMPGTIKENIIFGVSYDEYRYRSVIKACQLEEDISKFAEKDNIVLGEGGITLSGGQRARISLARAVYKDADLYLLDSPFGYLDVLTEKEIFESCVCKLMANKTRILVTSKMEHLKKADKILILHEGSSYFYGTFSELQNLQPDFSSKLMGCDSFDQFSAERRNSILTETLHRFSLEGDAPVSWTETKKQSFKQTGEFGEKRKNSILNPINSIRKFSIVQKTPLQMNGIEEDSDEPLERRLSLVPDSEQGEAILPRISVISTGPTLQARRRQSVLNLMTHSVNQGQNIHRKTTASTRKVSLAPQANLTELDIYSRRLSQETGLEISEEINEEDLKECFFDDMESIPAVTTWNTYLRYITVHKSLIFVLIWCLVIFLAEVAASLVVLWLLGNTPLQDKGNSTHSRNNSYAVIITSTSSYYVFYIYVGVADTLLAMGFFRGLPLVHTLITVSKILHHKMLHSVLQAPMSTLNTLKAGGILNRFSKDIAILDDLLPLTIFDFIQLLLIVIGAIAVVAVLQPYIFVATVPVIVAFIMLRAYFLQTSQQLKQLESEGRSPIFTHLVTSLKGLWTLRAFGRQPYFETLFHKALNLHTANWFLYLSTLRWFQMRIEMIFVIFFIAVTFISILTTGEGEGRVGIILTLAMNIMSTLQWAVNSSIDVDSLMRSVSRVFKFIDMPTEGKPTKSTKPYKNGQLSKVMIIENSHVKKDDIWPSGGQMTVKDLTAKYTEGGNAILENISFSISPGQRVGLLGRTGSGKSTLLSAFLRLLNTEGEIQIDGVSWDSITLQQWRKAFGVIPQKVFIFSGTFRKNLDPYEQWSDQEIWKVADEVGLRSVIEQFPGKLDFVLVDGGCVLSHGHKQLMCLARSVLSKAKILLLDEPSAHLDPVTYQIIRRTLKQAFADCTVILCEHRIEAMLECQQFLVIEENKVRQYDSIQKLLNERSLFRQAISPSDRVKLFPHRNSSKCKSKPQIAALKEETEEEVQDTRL

IC50 | Compound
17.4 µM | O=C(NCc1cccc(OC(F)(F)F)c1)c1nnc(-c2cc(Cl)c(O)c(Cl)c2)o1 [Compound 1, 5-(3,5-dichloro-4-hydroxyphenyl)-N-(3-(trifluoromethoxy)benzyl)-1,3,4-oxadiazole-2-carboxamide]
7.38 µM | CC(C)(C)c1ccc(CNC(=O)c2nnc(-c3cc(Cl)c(O)c(Cl)c3)o2)cc1 [Compound 5, N-(4-tert-butylbenzyl)-5-(3,5-dichloro-4-hydroxyphenyl)-1,3,4-oxadiazole-2-carboxamide]
14.6 µM | O=C(NC(c1ccccc1)c1ccccc1)c1nnc(-c2cc(Cl)c(O)c(Cl)c2)o1 [Compound 6, N-benzhydryl-5-(3,5-dichloro-4-hydroxyphenyl)-1,3,4-oxadiazole-2-carboxamide]
15.8 µM | O=C(NCc1ccc(Oc2ccccc2)cc1)c1nnc(-c2cccc(NS(=O)(=O)C(F)(F)F)c2)o1 [Compound 7, N-(4-phenoxybenzyl)-5-(3-(trifluoromethylsulfonamido)phenyl)-1,3,4-oxadiazole-2-carboxamide]
19 µM | CC(C)(C)c1ccc(CNC(=O)c2nnc(-c3cccc(NS(=O)(=O)C(F)(F)F)c3)o2)cc1 [Compound 9, N-(4-tert-butylbenzyl)-5-(3-(trifluoromethylsulfonamido)phenyl)-1,3,4-oxadiazole-2-carboxamide]
11.8 µM | CN(Cc1ccc(Cl)c(Cl)c1)C(=O)c1nnc(-c2cccc(NS(=O)(=O)C(F)(F)F)c2)o1 [Compound 10, N-(3,4-dichlorobenzyl)-N-methyl-5-(3-(trifluoromethylsulfonamido)phenyl)-1,3,4-oxadiazole-2-carboxamide]
1.88 µM | CN(Cc1ccc(Cl)c(Cl)c1)C(=O)c1nnc(-c2cc(Cl)c(O)c(Cl)c2)o1 [Compound 12, 5-(3,5-dichloro-4-hydroxyphenyl)-N-(3,4-dichlorobenzyl)-N-methyl-1,3,4-oxadiazole-2-carboxamide]
5.37 µM | O=C(NCc1cccc(Oc2ccccc2)c1)c1nnc(-c2cc(Cl)c(O)c(Cl)c2)o1 [Compound 14, 5-(3,5-dichloro-4-hydroxyphenyl)-N-(3-phenoxybenzyl)-1,3,4-oxadiazole-2-carboxamide]
5.77 µM | O=C(NCC(c1ccccc1)c1ccccc1)c1nnc(-c2cc(Cl)c(O)c(Cl)c2)o1 [Compound 15, 5-(3,5-dichloro-4-hydroxyphenyl)-N-(2,2-diphenylethyl)-1,3,4-oxadiazole-2-carboxamide]
7.53 µM | O=C(NCc1cccc(OCc2ccccc2)c1)c1nnc(-c2cc(Cl)c(O)c(Cl)c2)o1 [Compound 16, N-(3-(benzyloxy)benzyl)-5-(3,5-dichloro-4-hydroxyphenyl)-1,3,4-oxadiazole-2-carboxamide]
12.7 µM | CC(C)(C)c1ccc(CNC(=O)c2nnc(-c3ccc(NS(=O)(=O)C(F)(F)F)cc3)o2)cc1 [Compound 20, N-(4-tert-butylbenzyl)-5-(4-(trifluoromethylsulfonamido)phenyl)-1,3,4-oxadiazole-2-carboxamide]
14.3 µM | O=C(NCc1ccc(OC(F)(F)F)cc1)c1nnc(-c2cc(Cl)c(O)c(Cl)c2)o1 [Compound 22, 5-(3,5-dichloro-4-hydroxyphenyl)-N-(4-(trifluoromethoxy)benzyl)-1,3,4-oxadiazole-2-carboxamide]
18.8 µM | O=C(NCc1ccc(Oc2ccccc2)cc1)c1nnc(-c2ccc(NS(=O)(=O)C(F)(F)F)cc2)o1 [Compound 23, N-(4-phenoxybenzyl)-5-(4-(trifluoromethylsulfonamido)phenyl)-1,3,4-oxadiazole-2-carboxamide]
19.7 µM | O=C(NCc1ccc(F)c(C(F)(F)F)c1)c1nnc(-c2cc(Cl)c(O)c(Cl)c2)o1 [Compound 24, 5-(3,5-dichloro-4-hydroxyphenyl)-N-(4-fluoro-3-(trifluoromethyl)benzyl)-1,3,4-oxadiazole-2-carboxamide]
20.6 µM | O=C(c1nnc(-c2ccc(NS(=O)(=O)C(F)(F)F)cc2)o1)N1CCN(c2cccc(C(F)(F)F)c2)CC1 [Compound 25, 1,1,1-trifluoro-N-(4-(5-(4-(3-(trifluoromethyl)phenyl)piperazine-1-carbonyl)-1,3,4-oxadiazol-2-yl)phenyl)methanesulfonamide]

The remaining lines, values behind:

Compound | IC50
O=C(NCc1ccc(Oc2ccccc2)cc1)c1nnc(-c2cc(Cl)c(O)c(Cl)c2)o1 [Compound 2, 5-(3,5-Dichloro-4-hydroxyphenyl)-N-(4-phenoxybenzyl)-1,3,4-oxadiazole-2-carboxamide] | 3.95 µM
O=C(c1nnc(-c2cc(Cl)c(O)c(Cl)c2)o1)N1CCC(Cc2ccccc2)CC1 [Compound 3, (4-benzylpiperidin-1-yl)(5-(3,5-dichloro-4-hydroxyphenyl)-1,3,4-oxadiazol-2-yl)methanone] | 9.5 µM
O=C(c1nnc(-c2cccc(NS(=O)(=O)C(F)(F)F)c2)o1)N1CCC(Cc2ccccc2)CC1 [Compound 8, N-(3-(5-(4-benzylpiperidine-1-carbonyl)-1,3,4-oxadiazol-2-yl)phenyl)-1,1,1-trifluoromethanesulfonamide] | 13.3 µM
O=C(c1nnc(-c2cccc(NS(=O)(=O)C(F)(F)F)c2)o1)N1CCN(c2cccc(C(F)(F)F)c2)CC1 [Compound 11, 1,1,1-trifluoro-N-(3-(5-(4-(3-(trifluoromethyl)phenyl)piperazine-1-carbonyl)-1,3,4-oxadiazol-2-yl)phenyl)methanesulfonamide] | 13.4 µM
CN(Cc1cccc(Oc2ccccc2)c1)C(=O)c1nnc(-c2cc(Cl)c(O)c(Cl)c2)o1 [Compound 13, 5-(3,5-dichloro-4-hydroxyphenyl)-N-methyl-N-(3-phenoxybenzyl)-1,3,4-oxadiazole-2-carboxamide] | 3.26 µM
CN(Cc1ccc(Cl)c(Cl)c1)C(=O)c1nnc(-c2ccc(NS(=O)(=O)C(F)(F)F)cc2)o1 [Compound 17, N-(3,4-dichlorobenzyl)-N-methyl-5-(4-(trifluoromethylsulfonamido)phenyl)-1,3,4-oxadiazole-2-carboxamide] | 9.62 µM
O=C(NCc1ccc(OCc2ccccc2)cc1)c1nnc(-c2cc(Cl)c(O)c(Cl)c2)o1 [Compound 18, N-(4-(benzyloxy)benzyl)-5-(3,5-dichloro-4-hydroxyphenyl)-1,3,4-oxadiazole-2-carboxamide] | 9.86 µM
O=C(NCc1cccc(-c2ccccc2)c1)c1nnc(-c2cc(Cl)c(O)c(Cl)c2)o1 [Compound 19, N-(biphenyl-3-ylmethyl)-5-(3,5-dichloro-4-hydroxyphenyl)-1,3,4-oxadiazole-2-carboxamide] | 9.89 µM
O=C(NCc1cc(F)cc(C(F)(F)F)c1)c1nnc(-c2cc(Cl)c(O)c(Cl)c2)o1 [Compound 21, 5-(3,5-dichloro-4-hydroxyphenyl)-N-(3-fluoro-5-(trifluoromethyl)benzyl)-1,3,4-oxadiazole-2-carboxamide] | 13.6 µM
CC(NC(=O)c1nnc(-c2cc(Cl)c(O)c(Cl)c2)o1)c1ccc(Cl)cc1 (stereo not shown) [Compound 26, N-(1-(4-chlorophenyl)ethyl)-5-(3,5-dichloro-4-hydroxyphenyl)-1,3,4-oxadiazole-2-carboxamide] | 27.8 µM
